In brackets after ≈: the same amount, converted by molar mass. Like-named read-outs stand apart in the source and are kept apart here.
Legend:
[1] = test system: A549 human lung cancer cell line; test: MTT cell viability assay, A549; assay type: cell-based; conditions: 48 h treatment, n = 3
Procedure: (§1) Cytotoxicity of the metabolites and substrate were evaluated in various cancer cell lines (pancreatic: PANC-1, MIA PaCa-2; prostate: DU 145 and lung: A549) and two healthy cell lines (lung: MRC-5 and kidney: HEK-293) by MTT cell viability assay (Table 3).
(§2) To see cytotoxic effects of the obtained metabolites, a standard MTT (3-(4,5-dimethylthiazol-2-yl)-2,5-diphenyltetrazolium bromide) cell viability assay was performed on human cancer cell lines PANC-1 (pancreatic, ATCC® CRL-1469™), MIA PaCa-2 (pancreatic, ATCC® CRL-1420™), DU 145 (prostate, ATCC® HTB-81™) and A549 (lung, ATCC® CCL-185™) and two healthy cell lines MRC-5 (lung, ATCC® CCL-171™) and HEK-293 (kidney, ATCC® CRL-1573™) according to manufacturer’s instructions (M2128, Sigma-Aldrich®). For this purpose, cells at 80–90% confluency were seeded to 96-well plates as 5-10x10^3 cells/well in Eagle Minimal Essential Medium (EMEM) or Dulbecco Modified Eagle Medium (DMEM); supplemented with 10% FBS and 1% L-glutamine depending on the cell type and incubated in a humidified incubator at 37 °C with 5% CO2 atmosphere for 24 h. After cell adhesion, gitoxigenin and the metabolites were applied to the cells in triplicate with concentrations ranging between 0.001 and 10 µM. After 48 h exposure to certain concentrations of the compounds, medium was replaced with fresh one containing 10% MTT and plates were incubated for 3 h in the dark for the conversion of tetrazolium salts to formazan crystals by mitochondrial metabolism of viable cells. After incubation, formazan crystals were dissolved in DMSO and absorbance of each well were measured at 570 nm via microplate reader (Synergy™ HTX- BioTek, Winooski, VT, USA). Doxorubicin (10 nM, 1 µM and 4 µM) was used as positive control, whereas oleandrin (1 nM, 10 nM and 100 nM) was the second positive control as a potent cardenolide.
(§3) All compounds were dissolved in DMSO (Sigma Aldrich, St. Louis, MO, USA) and the final DMSO concentration applied to cells was 0.02% (v/v), which is non-toxic to cells. The IC50 values of the compounds were calculated by the normalization of optical densities (OD) to negative control DMSO (0.02%, v/v).

[2] = test system: DU 145 human prostate cancer cell line; test: MTT cell viability assay, DU 145; assay type: cell-based; conditions: 48 h treatment, n = 3
Procedure: as §1, §2, §3

[3] = test system: PANC-1 human pancreatic cancer cell line; test: MTT cell viability assay, PANC-1; assay type: cell-based; conditions: 48 h treatment, n = 3
Procedure: as §1, §2, §3

[4] = test system: Mia PaCa-2 pancreatic cancer cell line; test: MTT cell viability assay, MIA PaCa-2; assay type: cell-based; conditions: Homo sapiens, 48 h treatment, n = 3
Procedure: as §1, §2, §3

[5] = test system: HEK-293 human embryonic kidney cell line; test: MTT cell viability assay, HEK-293 (healthy); assay type: cell-based; conditions: for IC50: Homo sapiens, HEK293, healthy cell line, 48 h treatment, MTT, n = 3
Procedure: as §1, §2, §3

[6] = test system: MRC-5 human lung fibroblast cell line; test: MTT cell viability assay, MRC-5 (healthy); assay type: cell-based; conditions: MRC5, 48 h treatment, n = 3
Procedure: as §1, §2, §3

[7] = test system: A549, DU 145, PANC-1, MIA PaCa-2 cell lines; test: MTT cell viability assay, four cancer cell lines together; assay type: cell-based; conditions: Homo sapiens; range over four cancer cell lines; read-out: IC50 values ranging over A549, DU 145, PANC-1, MIA PaCa-2 cell lines
Procedure: as §1
To see cytotoxic effects of the obtained metabolites, a standard MTT (3-(4,5-dimethylthiazol-2-yl)-2,5-diphenyltetrazolium bromide) cell viability assay was performed on human cancer cell lines PANC-1 (pancreatic, ATCC® CRL-1469™), MIA PaCa-2 (pancreatic, ATCC® CRL-1420™), DU 145 (prostate, ATCC® HTB-81™) and A549 (lung, ATCC® CCL-185™) and two healthy cell lines MRC-5 (lung, ATCC® CCL-171™) and HEK-293 (kidney, ATCC® CRL-1573™) according to manufacturer’s instructions (M2128, Sigma-Aldrich®). […] After incubation, formazan crystals were dissolved in DMSO and absorbance of each well were measured at 570 nm via microplate reader (Synergy™ HTX- BioTek, Winooski, VT, USA). […]
as §3

dengue virus = test system: dengue virus; set-up: method as in PMID 22155902; conditions: immunofluorescence screen, hit criteria ≥40% inhibition; cited from earlier work
HeLa cells [8] = test system: HeLa cells; set-up: method as in PMID 12054363; conditions: homogeneous plate-reader assay; read-out: EC50 anticancer effect against HeLa cells; cited from earlier work
[9] = test system: TK-10 (renal adenocarcinoma); set-up: method as in PMID 14531018; conditions: cited from earlier work
UACC-62 (melanoma) = test system: UACC-62 (melanoma); set-up: method as in PMID 14531018; conditions: cited from earlier work
[10] = test system: MCF-7 (breast adenocarcinoma); set-up: method as in PMID 14531018; conditions: cited from earlier work
HeLa cells [11] = test system: HeLa cells; set-up: method as in PMID 5589524; conditions: cited from earlier work
[12] = test system: human nasopharynx carcinoma; set-up: method as in PMID 5014314; conditions: cited from earlier work
[13] = test system: infectious virus production (COVID-19); set-up: method as in doi:10.1101/2020.07.15.203489; conditions: in vitro, cited from earlier work

Structure (SMILES)	IC50 [1]	IC50 [2]	IC50 [3]	IC50 [4]	IC50 [5]	IC50 [6]	toxicity on healthy cell line HEK-293 ([5]; up to concentration of 10 µM)	IC50 [7]	inhibition of dengue virus (dengue virus)	EC50 (HeLa cells [8])	IC50 [9]	IC50 (UACC-62 (melanoma))	IC50 [10]	growth inhibitory effect on HeLa cells (HeLa cells [11])	ED50 in vitro inhibitory activity against human nasopharynx carcinoma [12]	reduction in infectious virus production ([13]; 0.05 µg/mL)	reduction in infectious virus production ([13]; 0.1 µg/mL)
C[C@]12CCC(=O)C[C@H]1CC(O)C1C2CC[C@]2(C)[C@@H](C3=CC(=O)OC3)[C@@H](O)C[C@]12O (stereo partly drawn) [Compound 1, 4-((5R,10S,13R,14S,16S,17R)-7,14,16-Trihydroxy-10,13-dimethyl-3-oxohexadecahydro-1H-cyclopenta[a]phenanthren-17-yl)furan-2(5H)-one]	> 10 µM	> 10 µM	> 10 µM	> 10 µM	> 10 µM	> 10 µM											
C[C@]12CCC(=O)C[C@H]1CCC1C2CC[C@]2(C)[C@@H](C3=CC(=O)OC3)[C@@H](O)C[C@]12O (stereo partly drawn) [Compound 2, 4-((5R,10S,13R,14S,16S,17R)-14,16-Dihydroxy-10,13-dimethyl-3-oxohexadecahydro-1H-cyclopenta[a]phenanthren-17-yl)furan-2(5H)-one]	> 10 µM	> 10 µM	> 10 µM	> 10 µM	> 10 µM	> 10 µM											
C[C@]12CCC(=O)C[C@H]1CC(O)C1C2CC(O)[C@]2(C)[C@@H](C3=CC(=O)OC3)[C@@H](O)C[C@]12O (stereo partly drawn) [Compound 3, 4-((5R,10S,13S,14S,16S,17R)-7,12,14,16-Tetrahydroxy-10,13-dimethyl-3-oxohexadecahydro-1H-cyclopenta[a]phenanthren-17-yl)furan-2(5H)-one]	> 10 µM	> 10 µM	> 10 µM	> 10 µM	> 10 µM	> 10 µM											
COC1(OC)CC[C@]2(C)C3CC[C@]4(C)[C@@H](C5=CC(=O)OC5)[C@@H](O)C[C@]4(O)C3C(O)C[C@@H]2C1 (stereo partly drawn) [Compound 4, 4-((5R,10S,13R,14S,16S,17R)-7,14,16-Trihydroxy-3,3-dimethoxy-10,13-dimethylhexadecahydro-1H-cyclopenta[a]phenanthren-17-yl)furan-2(5H)-one]	> 10 µM	> 10 µM	> 10 µM	> 10 µM	> 10 µM	> 10 µM											
C[C@]12CC[C@@H](O)C[C@H]1CCC1C2CC[C@]2(C)[C@@H](C3=CC(=O)OC3)[C@@H](O)C[C@]12O (stereo partly drawn) [Compound 5, 4-((3R,5R,10S,13R,14S,16S,17R)-3,14,16-Trihydroxy-10,13-dimethylhexadecahydro-1H-cyclopenta[a]phenanthren-17-yl)furan-2(5H)-one]	> 10 µM	> 10 µM	> 10 µM	> 10 µM	> 10 µM	> 10 µM											
C[C@]12CC[C@@H](O)C[C@H]1CC(O)C1C2CC[C@]2(C)[C@@H](C3=CC(=O)OC3)[C@@H](O)C[C@]12O (stereo partly drawn) [Compound 6, 4-((3R,5S,10S,13R,14S,16S,17R)-3,7,14,16-Tetrahydroxy-10,13-dimethylhexadecahydro-1H-cyclopenta[a]phenanthren-17-yl)furan-2(5H)-one]	> 10 µM	> 10 µM	> 10 µM	> 10 µM	> 10 µM	> 10 µM											
C[C@]12CCC(=O)C[C@H]1CCC1C2CC(O)[C@]2(C)[C@@H](C3=CC(=O)OC3)[C@@H](O)C[C@]12O (stereo partly drawn) [Compound 7, 4-((5R,10S,13S,14S,16S,17R)-12,14,16-Trihydroxy-10,13-dimethyl-3-oxohexadecahydro-1H-cyclopenta[a]phenanthren-17-yl)furan-2(5H)-one]	> 10 µM	> 10 µM	6.24 µM	> 10 µM	> 10 µM	> 10 µM											
C[C@]12CC[C@@H](O)C[C@H]1CCC1C2CC(O)[C@]2(C)[C@@H](C3=CC(=O)OC3)[C@@H](O)C[C@]12O (stereo partly drawn) [Compound 8, 4-((3R,5R,10S,13S,14S,16S,17R)-3,12,14,16-Tetrahydroxy-10,13-dimethylhexadecahydro-1H-cyclopenta[a]phenanthren-17-yl)furan-2(5H)-one]	8.25 µM	> 10 µM	1.95 µM	3.4 µM	> 10 µM	9.35 µM	without causing toxicity										
COc1cccc2c1C(=O)c1c(O)c3c(c(O)c1C2=O)C[C@@](O)(C(=O)CO)C[C@@H]3O[C@H]1C[C@H](N)[C@H](O)[C@H](C)O1 [Doxorubicin, reference compound]	0.62 µM	0.19 µM	> 10 µM	0.59 µM	0.587 µM	0.865 µM											
C[C@]12CC[C@H](O)C[C@H]1CCC1C2CC[C@]2(C)[C@@H](C3=CC(=O)OC3)[C@@H](O)C[C@]12O (stereo partly drawn) [Gitoxigenin, 4-((3S,5R,10S,13R,14S,16S,17R)-3,14,16-Trihydroxy-10,13-dimethylhexadecahydro-1H-cyclopenta[a]phenanthren-17-yl) furan-2(5H)-one]	2.19 µM	4.08 µM	1.53 µM	3.1 µM	7.6 µM	0.815 µM		1.53 to 4.08 µM	49.01%	2.1 µM	0.415 ± 0.03 µM	2.83 ± 0.17 µM	1.8 ± 0.32 µM	2.25 µg/mL	2.3 µg/mL (≈ 5.89 µM)		
CO[C@H]1C[C@H](O[C@H]2CC[C@@]3(C)[C@H](CC[C@@H]4[C@@H]3CC[C@]3(C)[C@@H](C5=CC(=O)OC5)[C@@H](OC(C)=O)C[C@]43O)C2)O[C@@H](C)[C@@H]1O [Oleandrin, reference compound]	0.0426 µM	0.021 µM	0.0387 µM	0.035 µM	0.073 µM	0.0173 µM										78 fold	100 fold

— publication PMC8161373, “New Cardenolides from Biotransformation of Gitoxigenin by the Endophytic Fungus Alternaria eureka 1E1BL1: Characterization and Cytotoxic Activities” (Molecules, 2021)
